Laboratory results: patent publication US7888394B2, “Synthesis, polymorphs, and pharmaceutical formulation of FAAH inhibitors” (N.V. Organon, priority 2006, dated 2011)

Columns and labels:
[1] = Oral bioavailability determination of KDS-4103 polymorphs: plasma concentrations after oral administration of suspensions to rats; type: in vivo; details: for [KDS-4103] plasma concentration: oral gavage, 100 mg/mL suspension at 1 ml/kg
Procedure: Animals were sacrificed at 30, 60 and 90 minutes post-dose in each group. Collection of K3EDTA was acheived via cardiac puncture.

[2] = as above; type: in vivo; details: oral gavage, 100 mg/mL suspension at 1 ml/kg
[3] = Particle size determination of KDS-4103 polymorphs (Malvern Mastersizer 2000 Hydro S, dispersed in hexane); type: physicochemical; details: 1 minute sonication (47 kHz), 10,000 sweeps
Procedure: “Effective particle size,” as used herein refers to and is determined on the basis of the volume weight average particle size as measured by conventional particle size measuring techniques well known to those skilled in the art. Such techniques include, for example, sedimentation field flow fractionation, photon correlation spectroscopy, light scattering, laser diffraction and disc centrifugation. For the purposes of the compositions, formulations and methods described herein, effective particle size is the volume mass average particle size as determined using light scattering methods, e.g. Horiba LA-950. For example, an effective particle size of 5.9 μm means that 50% of the particles by weight are less than 5.9 μm and 50% of the particles by weight are greater than 5.9 μm.

[4] = test system: fatty acid amide hydrolase (FAAH); details: cited from earlier work

Structure (SMILES)	[KDS-4103] plasma concentration ([1]; time 30 minutes post-dose)	[KDS-4103] plasma concentration ([1]; time 60 minutes post-dose)	[KDS-4103] plasma concentration ([1]; time 90 minutes post-dose)	[KDS-4103] plasma concentration ([2]; time 0 minutes)	average effective average particle size ([3]; listed as KDS-4103 from ethanol)	levels of the compound in circulation compared to the polymorph obtained from EtOH ([1]; oral suspension)	bioavailability of the suspension ([1]; oral suspension, compared to polymorph from ethanol)	concentration at 0 min ([2]; rat, plasma, po, 100 mg/kg, [KDS-4103] plasma concentration)	average effective average particle size ([3]; listed as KDS-4103 from acetonitrile)	inhibition of FAAH activity [4]
NC(=O)c1cccc(-c2cccc(OC(=O)NC3CCCCC3)c2)c1 [KDS-4103 polymorph from ethanol]	9.62 ng/mL	12.60 ng/mL	10.74 ng/mL	0.00 ng/mL	about 13.9 μm	–	–	–	–	–
NC(=O)c1cccc(-c2cccc(OC(=O)NC3CCCCC3)c2)c1 [KDS-4103 polymorph from acetonitrile]	196.06 ng/mL	58.95 ng/mL	105.36 ng/mL	–	–	increased levels of the compound in circulation	increased bioavailability	0 ng/mL	about 5.9 μm	–
NC(=O)c1cccc(-c2cccc(OC(=O)NC3CCCCC3)c2)c1 [KDS-4103]	–	–	–	–	–	–	–	–	–	potent and selective inhibitor of FAAH activity
